Results taken from patent US11207291B2, “Antimicrobial compositions comprising cannabinoids and methods of using the same” (Graphium Biosciences, Inc., priority 2017, dated 2021).
Converted amounts (≈) assume the structure as drawn. Where two headings read alike, the source gives them in different places.

How the values were obtained:
S. pneumoniae ATCC 49619 = experiment: MIC/MBC testing (Example 5); assay type: cell-based
E. coli ATCC 25922 = experiment: MIC/MBC testing (Example 5); assay type: cell-based; conditions: Escherichia coli, ATCC25922
S. pyogenes MMX 404 = experiment: MIC/MBC testing (Example 5); assay type: cell-based
Bifidobacterium bifidum [1] = experiment: Broth microdilution MIC, anaerobic bacteria (Example 4); assay type: cell-based; conditions: isolate MMX 3965
S. aureus MMX 757 = experiment: MIC/MBC testing (Example 5); assay type: cell-based
Streptococcus pneumoniae [2] = experiment: Broth microdilution MIC, aerobic bacteria (Example 1); assay type: cell-based; conditions: Streptococcus pneumoniae
Anaerobic Bacteria = experiment: Broth microdilution MIC, text summary (Example 1); assay type: cell-based
[3] = test system: Enterococcus faecalis (VRE); experiment: microbe, parasite or virus in culture; assay type: cell-based; conditions: Enterococcus faecalis, VRE
[4] = test system: Staphylococcus aureus (MSSA); experiment: Broth microdilution MIC, aerobic bacteria (Example 4); assay type: cell-based; conditions: ATCC 29213 / MSSA
Bifidobacterium longum = experiment: Broth microdilution MIC, anaerobic bacteria (Example 4); assay type: cell-based; conditions: isolate MMX 3968
E. faecalis MMX 848 = experiment: MIC/MBC testing (Example 5); assay type: cell-based
C. difficile = experiment: MIC/MBC testing (Example 5); assay type: cell-based; conditions: for MBC:MIC: ratios of 1-4 are indicative of bactericidal activity; for MBC / MIC: Clostridioides difficile
Clostridium difficile = experiment: Broth microdilution MIC, anaerobic bacteria (Example 1); assay type: cell-based; conditions: Clostridioides difficile
S. aureus ATCC 29213 = experiment: MIC/MBC testing (Example 5); assay type: cell-based
[5] = test system: Enterococcus faecalis (VSE); experiment: Broth microdilution MIC, aerobic bacteria (Example 1); assay type: cell-based; conditions: Enterococcus faecalis, ATCC29212, isolate MMX 101 (ATCC 29212), read-out: MIC
[6] = test system: evaluated yeast and fungal isolates; experiment: Broth microdilution MIC, text summary (Example 1); assay type: cell-based
[7] = test system: Enterococcus faecalis (VRE); experiment: microbe, parasite or virus in culture; assay type: cell-based
Aspergillus fumigatus [8] = experiment: Broth microdilution MIC, yeast and fungi (Example 1); assay type: cell-based; conditions: Aspergillus fumigatus, isolate MMX 5280 (ATCC MYA-3626)
strains tested = experiment: MIC/MBC testing, summary (Example 5); assay type: cell-based
gram-positive aerobes = experiment: Broth microdilution MIC, text summary (Example 1); assay type: cell-based
Bacteroides fragilis = experiment: Broth microdilution MIC, anaerobic bacteria (Example 4); assay type: cell-based; conditions: ATCC25285, isolate MMX 123 (ATCC 25285)
Lactobacillus crispatus = experiment: Broth microdilution MIC, anaerobic bacteria (Example 1); assay type: cell-based; conditions: Lactobacillus crispatus
[9] = test system: evaluated yeast and fungal isolates; experiment: Broth microdilution MIC, summary (Example 4); assay type: cell-based
Streptococcus pyogenes = experiment: Broth microdilution MIC, aerobic bacteria (Example 1); assay type: cell-based; conditions: Streptococcus pyogenes, isolate MMX 404, read-out: MIC
Streptococcus pneumoniae [10] = experiment: Broth microdilution MIC, aerobic bacteria (Example 4); assay type: cell-based; conditions: ATCC49619
Acinetobacter baumannii = experiment: as above; assay type: cell-based
Bifidobacterium bifidum [11] = experiment: Broth microdilution MIC, anaerobic bacteria (Example 1); assay type: cell-based; conditions: Bifidobacterium bifidum
Escherichia coli = experiment: Broth microdilution MIC, aerobic bacteria (Example 1); assay type: cell-based; conditions: Escherichia coli, ATCC25922, isolate MMX 102 (ATCC 25922), read-out: MIC
Aspergillus fumigatus [12] = experiment: Broth microdilution MIC, fungi (Example 4); assay type: cell-based; conditions: Aspergillus fumigatus
[13] = Compound precipitation in uninoculated solubility controls (Example 1); assay type: physicochemical; set-up: key to precipitation observed (type): NA: not applicable (no precipitation observed); TRP: trace precipitate; DCP: distinct precipitate
Description: Plates were stacked 3-4 high, covered with a lid on the top plate, placed in plastic bags, and incubated at 35° C. for approximately 16 to 20 hr (aerobes), 20 to 24 hr (Streptococcus), and 24 and 48 hr (fungi). Anaerobe plates were stacked, covered with a lid on the top plate, placed in a BD GasPak EZ Anaerobe Container System and incubated at 35° C. for 48 hr. Following incubation, the microplates were removed from the incubator and viewed from the bottom using a plate viewer. […] The MIC was read and recorded as the lowest concentration of drug that inhibited visible growth of the organism.

[14] = test system: Enterococcus faecalis (VSE); experiment: Broth microdilution MIC, aerobic bacteria (Example 4); assay type: cell-based; conditions: ATCC29212
[15] = Streptococcus pneumoniae, ATCC49619
[16] = ratios of 1-4 are indicative of bactericidal activity
[17] = read-out: inhibits the growth (IC50)
[18] = ATCC700057, Example 5, ATCC 700057
[19] = Staphylococcus aureus, ATCC29213
[20] = Example 1 summary of findings, read-out: inhibits the growth (IC50 values)

## C=C(C)[C@@H]1CCC(C)=C[C@H]1c1c(O)cc(CCCCC)cc1O [CBD, cannabidiol]
S. pneumoniae ATCC 49619; [15]
  MBC: 4 µg/mL (≈ 12.7 µM)
  MIC: 1 µg/mL (≈ 3.18 µM)
S. pneumoniae ATCC 49619; [16]
  MBC:MIC: 4
E. coli ATCC 25922
  MIC: > 256 µg/mL
S. pyogenes MMX 404; Streptococcus pyogenes, MMX404
  MBC: 32 µg/mL (≈ 102 µM)
  MIC: 32 µg/mL (≈ 102 µM)
S. pyogenes MMX 404; [16]
  MBC:MIC: 1
Bifidobacterium bifidum [1]
  MIC: 8 µg/mL (≈ 25.4 µM)
S. aureus MMX 757; Staphylococcus aureus, MMX757
  MBC: 1 µg/mL (≈ 3.18 µM)
  MIC: 1 µg/mL (≈ 3.18 µM)
S. aureus MMX 757; [16]
  MBC:MIC: 1
Streptococcus pneumoniae [2]; ATCC49619, Example 1, isolate MMX 1195 (ATCC 49619), read-out: MIC
  MIC: 4 µg/mL (≈ 12.7 µM)
Streptococcus pneumoniae [2]; Example 1 summary of findings, read-out: inhibits the growth (IC50)
  IC50: 4 µg/mL (≈ 12.7 µM)
Anaerobic Bacteria
  MICs (range over anaerobic bacteria): 2 to 64 µg/mL
[3]
  MIC: 2 µg/mL (≈ 6.36 µM)
[3]; [17]
  IC50: 2 µg/mL (≈ 6.36 µM)
[4]
  MIC: 2 µg/mL (≈ 6.36 µM)
Bifidobacterium longum
  MIC: 64 µg/mL (≈ 204 µM)
E. faecalis MMX 848; Enterococcus faecalis, MMX848
  MBC: 2 µg/mL (≈ 6.36 µM)
  MIC: 1 µg/mL (≈ 3.18 µM)
E. faecalis MMX 848; [16]
  MBC:MIC: 2
C. difficile; ATCC 700057
  MBC:MIC: 2
C. difficile; [18]
  MBC: 32 µg/mL (≈ 102 µM)
  MIC: 16 µg/mL (≈ 50.9 µM)
C. difficile; Example 5, MMX 8330
  MBC: 32 µg/mL (≈ 102 µM)
  MIC: 32 µg/mL (≈ 102 µM)
C. difficile; Example 5, MMX 8333
  MBC: 32 µg/mL (≈ 102 µM)
  MIC: 16 µg/mL (≈ 50.9 µM)
C. difficile; MMX 8330
  MBC:MIC: 1
C. difficile; MMX 8333
  MBC:MIC: 2
Clostridium difficile; ATCC00057, Example 1, isolate MMX 4381 (ATCC 00057)
  MIC: 32 µg/mL (≈ 102 µM)
Clostridium difficile; Example 1, isolate MMX 8330, read-out: MIC
  MIC: 32 µg/mL (≈ 102 µM)
Clostridium difficile; Example 1, isolate MMX 8333, read-out: MIC
  MIC: 32 µg/mL (≈ 102 µM)
Clostridium difficile; [17]
  IC50: 32 µg/mL (≈ 102 µM)
S. aureus ATCC 29213; [19]
  MBC: 2 µg/mL (≈ 6.36 µM)
  MIC: 1 µg/mL (≈ 3.18 µM)
S. aureus ATCC 29213; [16]
  MBC:MIC: 2
[5]
  MIC: 2 µg/mL (≈ 6.36 µM)
[6]
  activity against yeast and fungal isolates: Neither the cannabinoid prodrugs or CBD were active
[7]
  MIC: 2 µg/mL (≈ 6.36 µM)
Aspergillus fumigatus [8]; 24 hr, read-out: MIC at 24 hr
  MIC: > 256 µg/mL
Aspergillus fumigatus [8]; 48 hr, read-out: MIC at 48 hr
  MIC: > 256 µg/mL
Strains tested
  biocidal activity against the strains tested: overall biocidal
gram-positive aerobes
  activity against gram-positive aerobic bacteria: active
Bacteroides fragilis
  MIC: > 128 µg/mL
Lactobacillus crispatus; Example 1, isolate MMX 4147, read-out: MIC
  MIC: 2 µg/mL (≈ 6.36 µM)
Lactobacillus crispatus; [20]
  IC50: 2 µg/mL (≈ 6.36 µM)
[9]
  activity against yeast and fungal isolates: Neither THC nor CBD were active
Streptococcus pyogenes
  MIC: 16 µg/mL (≈ 50.9 µM)
Streptococcus pneumoniae [10]
  MIC: 4 µg/mL (≈ 12.7 µM)
Acinetobacter baumannii
  MIC: > 128 µg/mL
Bifidobacterium bifidum [11]; Example 1, isolate MMX 3965, read-out: MIC
  MIC: 2 µg/mL (≈ 6.36 µM)
Bifidobacterium bifidum [11]; [20]
  IC50: 2 µg/mL (≈ 6.36 µM)
Escherichia coli
  MIC: > 256 µg/mL
Aspergillus fumigatus [12]; 48 h, read-out: MIC at 48 hr
  MIC: > 128 µg/mL
Aspergillus fumigatus [12]; Example 4, 24 hr, isolate MMX 5280 (MYA-3626), read-out: MIC at 24 hr
  MIC: > 128 µg/mL
[13]; MHB II
  lowest concentration at which precipitation was observed: 16 µg/mL
  precipitation observed (type): TRP
[13]; MHB II with Blood
  lowest concentration at which precipitation was observed: 128 µg/mL
  precipitation observed (type): TRP
[14]
  MIC: 2 µg/mL (≈ 6.36 µM)
